The source of these data is article PMC11357992, “Non-invasive mapping of systemic neutrophil dynamics upon cardiovascular injury” (Nature Cardiovascular Research, 2023).

One data set relates to bone marrow neutrophils. The data set is described as follows: In situ labeling of bone marrow neutrophils and tracking after MI, 1H/19F MRI of bone marrow. The class given is in vivo, mouse. The procedure:
For labeling of neutrophils before MI, mice were anesthetized (1.5% isoflurane) and 1 mmol per kg BW PFCs were injected intravenously via the tail vein on 3 consecutive days. Induction of MI was essentially carried out as previously described. For inhibiting the egress of neutrophils from the bone marrow in a subset of experiments, a cocktail of neutralizing antibodies was injected i.p. 1 h before and 4 h after MI (CXCL1, CXCL2, G-CSF, GM-CSF, 50 µg each, Thermo Fisher). To generate neutropenic mice, 48 and 24 h before MI, 500 µg of the Ly6G-depletion antibody (BioXcell, clone 1A8) was injected i.p. in independent experiments.
All experiments were performed with a vertical 9.4 T Bruker AVANCE^III Wide Bore NMR spectrometer (Bruker) driven by ParaVision 5.1 and operating at frequencies of 400.21 MHz for ^1H measurements and 376.54 MHz for ^19F measurements using a Bruker microimaging unit, Micro2.5, with actively shielded gradient sets (1.5 T m^−1). Data were acquired using a 25-mm quadrature ^19F resonator with one channel tunable to both ^1H and ^19F. Mice were anesthetized with 1.5% isoflurane and kept at 37 °C. After acquisition of morphological ^1H images, the resonator was tuned to ^19F, and anatomically matching ^19F images were recorded essentially as described previously. […]
Slice packages were placed in sagittal orientation to cover the complete bone marrow in the tibia and femur in both legs using the following scan details: ^1H RARE, TR = 2,000 ms, FOV = 4.00 × 2.56 cm^2, matrix = 256 × 256, ST = 1 mm, tAcq = 1 min; ^19F RARE, TR = 2,500 ms, FOV = 4.00 × 2.56 cm^2, matrix = 64 × 64, ST = 3 mm, tAcq = 10 min.
Extended Data Fig. 4 Experimental timeline and whole body ^1H/^19F MRI of a ^mNPPFC-treated mouse. a, To label neutrophils within the bone marrow, ^mNPPFCs (or ^ConPFCs as control) were intravenously injected on three consecutive days (day −3, −2, −1) followed by ^1H/^19F MRI of the bone marrow on day 0. Subsequently, MI was induced and bone marrow and the infarcted heart were analyzed by combined ^1H/^19F MRI 24 h later. b, In separate experiments, neutralizing antibodies against CXCL1, CXCL2, G-CSF and GM-CSF were injected intraperitoneally (i. p.; 50 µg) 1 h before and 4 h post induction of MI to inhibit the MI-stimulated egress of neutrophils from the bone marrow and their infiltration into the heart. c, To determine the whole body biodistribution of ^mNPPFCs, ^mNPPFCs were intravenously injected daily over three consecutive days. Afterwards, whole body ^1H/^19F MRI measurements were performed to visualize the labelled neutrophils in the different bone marrow compartments. The bright ^19F spot in the middle represents the liver – an organ known to be as major site of (PFC) nanoparticle deposition.
Extended Data Fig. 5 ^mNPPFC incorporation into the bone marrow and cardiac function after MI. a, Impact of neutrophil depletion on ^mNPPFC incorporation into the bone marrow: For in vivo labeling of bone marrow neutrophils, ^mNPPFCs were injected intravenously and 24 h later the ^19F signal within the femur and tibia was determined (gray). […] The marrow mainly belongs to the diaphysis whereas the growth of the bones takes place at the inner and outer epiphysis. […]

The nature of data set [1]: Liver serum markers after PFC injection. Conditions: i.v. over 3 consecutive days, 24 h after last injection. The class given is in vivo, mouse. As to the method: ^ConPFCs, ^mNPPFCs (each at 1 mM per kg BW) or saline were injected i.v. over 3 consecutive days. Twenty-four hours after the last injection, mice were killed, and blood samples were withdrawn to determine GLDH, AST, ALP, ALT and bilirubin levels by standard clinical procedures. Furthermore, the liver and spleen were dissected, fixed in formalin and snap frozen. Subsequently, 4-µm cryosections were cut and stained with hematoxylin and eosin as described previously.
Extended Data Fig. 3 Assessment of ^mNPPFC/^ConPFC biodistribution, liver serum markers and histology of liver and spleen. a, Biodistribution of intravenously injected ^mNPPFCs was determined via ^19F MRI measurements at distinct time points after injection (1, 3, 6 and 24 h after injection). Shown are quantification of fluorine signal intensities in the blood, liver and spleen indicating a fast wash-out from the blood accompanied by a strong influx into the liver while signal intensities in the spleen were constant over the entire observation period; a.u. = arbitrary units. b, Serum levels of GLDH (glutamate dehydrogenase), AST (aspartate aminotransferase), ALP (alkaline phosphatase), ALT (alanine aminotransferase) and bilirubin after intravenous application of NaCl as control, ^ConPFCs or ^mNPPFCs. c + d, 4 µm sections of liver (C) and spleen (D) stained with hematoxylin and eosin. Organs were excised and processed for histology 24 h post injection of NaCl (upper row), ^ConPFCs (middle), ^mNPPFCs (lower). Representative liver/spleen images of organs from three different animals are shown. Scale bars indicate 100 µm. Data are mean values ± SD of n = 6 (a), n = 4-6 (b) and n = 6 (c + d) independent experiments. Source data

Several values for one entry are separate records, joined by “and”; a condition that tells them apart may be missing. Equal values may be shown once. Where no end group is shown, it is not given here. Side-chain parts run from the residue outwards. rhodamine‑labelled PEGylated perfluoro‑15‑crown‑5 ether nanoemulsion = not defined here; carboxyfluorescein = N-terminal fluorescence label (CF)

Regarding “mNPPFCs: PEGylated rhodamine-labeled perfluoro-15-crown-5 ether nanoemulsion (maleimide PFCs) coupled with murine neutrophil-specific peptide mNP (carboxyfluorescein-DFYKPMPNLRITGGGC([maleimide‑PEG2000‑DSPE-rhodamine‑labelled PEGylated perfluoro‑15‑crown‑5 ether nanoemulsion]); reading uncertain; also: printed as DFYKPMPNLRIT-GGG-C)”, in the data set with bone marrow neutrophils (1H/19F MRI, after MI, panel B raw data, single animals), the “19F signal of bone marrow, Post” value is 384270 and 284234 and 342343 and 246818 and 294364 and 237217 and 352300. Moreover, the “19F signal of bone marrow, Pre” value in the data set on bone marrow neutrophils (1H/19F MRI, before MI, panel B raw data, single animals) was 555612 and 765758 and 385254 and 440946 and 378880 and 354237 and 356979 and 487088 and 602276. Moreover, the “19F signal within the femur and tibia (bone marrow)” value in the data set with bone marrow neutrophils (Ctrl (no depletion), 24 h after i.v. mNPPFC injection, individual experiments) was 1.88E+06 and 1.21E+06 and 1.06E+06 and 1.73E+06. In the data set on bone marrow neutrophils (femur and tibia, daily i.v. injections over 3 d before MI), the “change of bone marrow 19F signal 24 h after MI” value is recorded as “substantial reduction”. In addition, the “BM 19F signal post MI normalized to the 19F signals detected before induction of MI” value in the data set on bone marrow neutrophils (mNPPFC-labeled mice, Nabs = plus antibodies against CXCL1, CXCL2, G-CSF, GM-CSF i.p. 1 h before and 4 h post MI, individual experiments) is 69.1617 and 64.46 and 69.676 and 82.4597 and 48.7011 and 58.4948 and 73.1944 and 76.1165. In data set [1], the “adverse side effects (liver serum markers, histology of liver and spleen)” value is “neither analysis of liver serum markers (GLDH, AST, ALP, ALT, bilirubin) nor histological examination of the liver and spleen revealed any evidence for adverse side effects”.
